{
  "source": "patent US8722877B2",
  "about": "“7-deazapurine modulators of histone methyltransferase, and methods of use thereof” (Epizyme, Inc., priority 2010, dated 2014)",
  "key": {"[1]": {"test_system": "H3K79 methylation in MOLM-13 cells", "test": "Cellular H3K79 methylation analysis (histone immunoblot) in MOLM-13 cells", "format": "cell-based, human"}, "[2]": {"test_system": "MOLM-13 cells", "test": "Cell growth and viability / proliferation, MOLM-13 cells", "format": "cell-based, human"}, "[3]": {"molecular_target": "DOT1L(1-416) (Homo sapiens (Human), UniProt Q8TEK3)", "sequence (Q8TEK3 1-416)": "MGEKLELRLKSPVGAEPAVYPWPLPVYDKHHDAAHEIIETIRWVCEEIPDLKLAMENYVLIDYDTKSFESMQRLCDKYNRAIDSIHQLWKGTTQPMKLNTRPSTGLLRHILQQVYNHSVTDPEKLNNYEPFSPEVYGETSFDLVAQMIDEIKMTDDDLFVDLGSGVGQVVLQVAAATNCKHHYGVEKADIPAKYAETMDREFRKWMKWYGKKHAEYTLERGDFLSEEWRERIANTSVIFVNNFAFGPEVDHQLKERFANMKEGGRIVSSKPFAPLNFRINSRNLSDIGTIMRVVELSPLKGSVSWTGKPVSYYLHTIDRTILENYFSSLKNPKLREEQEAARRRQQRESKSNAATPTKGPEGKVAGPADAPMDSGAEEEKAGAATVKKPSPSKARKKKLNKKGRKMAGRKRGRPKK", "test": "Determination of IC50, DOT1L biochemical assay"}, "[4]": {"test_system": "MV4-11 cells", "test": "Proliferation assay, MV4-11 cells", "format": "cell-based, human", "conditions": "3 μM, several days"}, "[5]": {"test_system": "Jurkat cells", "test": "Proliferation assay, Jurkat cells", "format": "cell-based, human", "conditions": "3 μM, several days"}, "[6]": {"test_system": "MLL-rearranged human leukemia cell lines", "test": "Proliferation IC50 in panel of MLL-rearranged leukemia cell lines", "format": "cell-based", "conditions": "six MLL-rearranged cell lines (FIG. 6)"}, "[7]": {"test_system": "non-MLL rearranged human leukemia cell lines", "test": "Proliferation IC50 in panel of non-MLL-rearranged leukemia cell lines", "format": "cell-based", "conditions": "six non-MLL rearranged cell lines (FIG. 6), read-out: IC50 for inhibition of proliferation"}, "[8]": {"test_system": "TBP", "test": "Housekeeping gene TBP transcript levels"}, "[9]": {"test_system": "H3K79me2 in Jurkat cells", "test": "Cellular H3K79me2 immunoblot in Jurkat cells", "conditions": "Jurkat (non-MLL-rearranged)"}, "[10]": {"test_system": "HOXA9", "test": "HOXA9 transcript levels by quantitative real-time PCR", "conditions": "for IC50: read-out: decrease of HOXA9 transcript, IC50"}, "[11]": {"test_system": "MEIS1", "test": "MEIS1 transcript levels by quantitative real-time PCR", "conditions": "for IC50: read-out: decrease of MEIS1 transcript, IC50"}, "[12]": {"test_system": "H3K79me2 in MV4-11 cells", "test": "Cellular histone methylation immunoblot in MV4-11 cells"}, "[13]": {"test_system": "MV4-11 cells", "test": "Cell cycle and apoptosis by flow cytometry (DNA content, Annexin V), MV4-11 cells", "conditions": "3 μM, after day four over the next six days"}, "[14]": {"test_system": "CD14", "test": "Cell surface expression of differentiation marker CD14 by flow cytometry, MOLM-13 cells", "conditions": "3 μM"}, "[15]": {"conditions": "MV4-11 cells, 3 μM, time course"}},
  "note": "Where a name gives a salt, the structure may show the parent alone. Read-outs that look alike come from different tables or passages of the source.",
  "data": [
    {"compound": "CN(CCCNC(=O)Nc1ccc(C(C)(C)C)cc1)CC1O[C@@H](n2ccc3c(N)ncnc32)[C@H](O)[C@@H]1O", "note": "(stereo partly shown) [Compound 9, hydrochloride]", "values": [
      {"measurement": "IC50", "setting": "[1]; MOLM-13 cells, read-out: H3K79 IC50 MOLM-13 cells", "result": 77, "unit": "nM"},
      {"measurement": "IC50", "setting": "[2]; MOLM-13 cells, read-out: Proliferation IC50 MOLM-13 cells", "result": 17.3, "unit": "µM"}
    ]},
    {"compound": "CC(C)N(CCCNC(=O)Nc1ccc(C(C)(C)C)cc1)C[C@H]1O[C@@H](n2ccc3c(N)ncnc32)[C@H](O)[C@@H]1O", "note": "[Compound 16, 1-(3-((((2R,3S,4R,5R)-5-(4-amino-7H-pyrrolo[2,3-d]pyrimidin-7-yl)-3,4-dihydroxytetrahydrofuran-2-yl)methyl)(isopropyl)amino)propyl)-3-(4-(tert-butyl)phenyl)urea]", "values": [
      {"measurement": "mode of binding to the enzyme (steady state kinetic analysis)", "setting": "[3]; versus SAM", "result": "binds to the enzyme competitively with SAM"},
      {"measurement": "global H3K79me2 levels", "setting": "[1]; MOLM-13 (MLL-AF9), immunoblot", "result": "concentration dependent reduction"},
      {"measurement": "number of viable cells", "setting": "[2]; MOLM-13 cells, 3 μM, several days", "result": "dramatically reduced"},
      {"measurement": "number of viable cells", "setting": "[4]", "result": "dramatically reduced"},
      {"measurement": "growth of cells", "setting": "[5]", "result": "unaffected"},
      {"measurement": "IC50 for inhibition of proliferation", "setting": "[6]", "result": "nanomolar to low micromolar range"},
      {"measurement": "IC50", "setting": "[7]", "result": "> 10", "unit": "µM"},
      {"measurement": "transcript levels of the housekeeping gene TBP", "setting": "[8]", "result": "unaffected"},
      {"measurement": "global H3K79me2 levels", "setting": "[9]", "result": "concentration dependent reduction"},
      {"measurement": "estimated half-life for HOXA9 inhibition", "setting": "[10]; 3 μM, mRNA over time", "result": 2.3, "unit": "days"},
      {"measurement": "IC50", "setting": "[10]; MOLM-13 cells", "result": "~700", "unit": "nM"},
      {"measurement": "IC50", "setting": "[10]; MV4-11 cells", "result": "~700", "unit": "nM"},
      {"measurement": "estimated half-life for MEIS1 inhibition", "setting": "[11]; 3 μM, mRNA over time", "result": 3.3, "unit": "days"},
      {"measurement": "IC50", "setting": "[11]; MOLM-13 cells", "result": "~700", "unit": "nM"},
      {"measurement": "IC50", "setting": "[11]; MV4-11 cells", "result": "~700", "unit": "nM"},
      {"measurement": "global H3K79me2 levels", "setting": "[12]; MV4-11 (MLL-AF4), immunoblot", "result": "concentration dependent reduction"},
      {"measurement": "methyl marks affected (panel of methyl-lysine and methyl-arginine specific antibodies)", "setting": "[12]; MV4-11 cells", "result": "only methyl marks affected by compound 16 treatment were H3K79me1 and H3K79me2"},
      {"measurement": "H3K79me2 levels within one day of treatment", "setting": "[12]; [15]", "result": "modest reduction"},
      {"measurement": "time to full depletion of H3K79me2", "setting": "[12]; [15]", "result": "four to five"},
      {"measurement": "cell cycle and apoptosis", "setting": "[13]", "result": "increase in sub-G1 and Annexin-positive cells"},
      {"measurement": "expression of CD14", "setting": "[14]", "result": "induced following 12 days"}
    ]},
    {"compound": "CC(C)N(CCCNC(=O)Nc1ccc(C(C)(C)C)cc1)C[C@H]1O[C@@H](n2ccc3c(N)ncnc32)[C@H](O)[C@@H]1O", "note": "[Compound 17, 1-(3-((((2R,3S,4R,5R)-5-(4-amino-7H-pyrrolo[2,3-d]pyrimidin-7-yl)-3,4-dihydroxytetrahydrofuran-2-yl)methyl)(isopropyl)amino)propyl)-3-(4-(tert-butyl)phenyl)urea hydrochloride]", "values": [
      {"measurement": "IC50", "setting": "[1]; Homo sapiens, MOLM-13, read-out: H3K79 IC50 MOLM-13 cells", "result": 59, "unit": "nM"},
      {"measurement": "IC50", "setting": "[2]; Homo sapiens, MOLM-13, read-out: Proliferation IC50 MOLM-13 cells", "result": 3.2, "unit": "µM"}
    ]},
    {"compound": "CC(C)N(CCCCc1nc2cc(C(C)(C)C)ccc2[nH]1)C[C@H]1O[C@@H](n2ccc3c(N)ncnc32)[C@H](O)[C@@H]1O", "note": "[Compound 18, (2R,3R,4S,5R)-2-(4-amino-7H-pyrrolo[2,3-d]pyrimidin-7-yl)-5-(((4-(5-(tert-butyl)-1H-benzo[d]imidazol-2-yl)butyl)(isopropyl)amino)methyl)tetrahydrofuran-3,4-diol]", "values": [
      {"measurement": "IC50", "setting": "[3]", "result": "< 10", "unit": "nM"}
    ]},
    {"compound": "CC(C)(C)c1ccc(NC(=O)NCCCNC[C@H]2O[C@@H](n3ccc4c(N)ncnc43)[C@H](O)[C@@H]2O)cc1", "note": "[Compound 20]", "values": [
      {"measurement": "IC50", "setting": "[3]", "result": "< 1000", "unit": "nM"}
    ]},
    {"compound": "CC(=O)N(CCCNC(=O)Nc1ccc(C(C)(C)C)cc1)C[C@H]1O[C@@H](n2ccc3c(N)ncnc32)[C@H](O)[C@@H]1O", "note": "[Compound 21]", "values": [
      {"measurement": "IC50", "setting": "[3]", "result": "< 1000", "unit": "nM"}
    ]}
  ]
}
